According to US20100009970A1, “COMPOSITIONS AND METHODS FOR TREATMENT OF VIRAL DISEASES” (Combinatorx (Singapore) Pte. Ltd., priority 2008, published 2010):
Where two headings read alike, the source gives them in different places.

Columns and labels:
in vitro = settings: human
[1] = test system: Huh7 cells expressing a subgenomic RNA replicon of Con1 (genotype 1b) sequence origin; experiment: microbe, parasite or virus in culture; settings: Hepatitis C virus; for Emax: Huh-7, read-out: Max Effect@CC30 (inhibition)
[2] = Huh-7, read-out: IC50 (uM) [SG]

Row | Compound | CC50 (in vitro; CC50 (uM) [SG]) | IC90 ([1]; Huh-7) | IC50 [1, 2] | Emax [1] | CC50 (in vitro; CC50 (uM)) | IC50 ([1]; Huh-7)
1 | CSc1ccc(Oc2ccc(S(N)(=O)=O)cc2CN2CCN(C3CCN(C)CC3)CC2)cc1C [Compound 90, 4-(3-methyl-4-(methylthio)phenoxy)-3-((4-(1-methylpiperidin-4-yl)piperazin-1-yl)methyl)benzenesulfonamide] | 9.1 µM | 7.48 µM | 2.03 µM | – | – | –
2 | CSc1ccc(Oc2ccc(S(N)(=O)=O)cc2CN2CCN(c3ccncc3)CC2)cc1C [Compound 91, 4-(3-methyl-4-(methylthio)phenoxy)-3-((4-(pyridin-4-yl)piperazin-1-yl)methyl)benzenesulfonamide] | 9.86 µM | – | 4.91 µM | – | – | –
3 | CSc1ccc(Oc2ccc(S(N)(=O)=O)cc2CN2CCN(c3ccc(Cl)cc3)CC2)cc1C [Compound 92, 3-((4-(4-chlorophenyl)piperazin-1-yl)methyl)-4-(3-methyl-4-(methylthio)phenoxy)benzenesulfonamide] | 44.4 µM | – | 30 µM | – | – | –
4 | CSc1ccc(Oc2ccc(S(N)(=O)=O)cc2CN2CCN(c3ccccc3)CC2)cc1C [Compound 93, 4-(3-methyl-4-(methylthio)phenoxy)-3-((4-phenylpiperazin-1-yl)methyl)benzenesulfonamide] | 43.1 µM | – | 20.2 µM | – | – | –
5 | CSc1ccc(Oc2ccc(S(N)(=O)=O)cc2CN(C)CCCN(C)C)cc1C [Compound 94, 3-(((3-(dimethylamino)propyl)(methyl)amino)methyl)-4-(3-methyl-4-(methylthio)phenoxy)benzenesulfonamide] | 15 µM | 7.38 µM | 3.26 µM | – | – | –
6 | CSc1ccc(Oc2ccc(S(N)(=O)=O)cc2CN2CCN(CCO)CC2)cc1C [Compound 95, 3-((4-(2-hydroxyethyl)piperazin-1-yl)methyl)-4-(3-methyl-4-(methylthio)phenoxy)benzenesulfonamide] | > 50 µM | 17 µM | 6.5 µM | – | – | –
7 | CSc1ccc(Oc2ccc(S(N)(=O)=O)cc2CNCCN(C)C)cc1C [Compound 96, 3-((2-(dimethylamino)ethylamino)methyl)-4-(3-methyl-4-(methylthio)phenoxy)benzenesulfonamide] | 19.4 µM | 5.89 µM | 2.77 µM | – | – | –
8 | CSc1ccc(Oc2ccc(S(N)(=O)=O)cc2CN(C)CCN(C)C)cc1C [Compound 97, 3-(((2-(dimethylamino)ethyl)(methyl)amino)methyl)-4-(3-methyl-4-(methylthio)phenoxy)benzenesulfonamide] | 43.3 µM | 14 µM | 12.4 µM | – | – | –
9 | CSc1ccc(N(C)c2ccc(Br)cc2CN(C)C)cc1C [Compound 98, 4-Bromo-2-((dimethylamino)methyl)-N-methyl-N-(3-methyl-4-(methylthio)phenyl)aniline] | > 50 µM | 26.8 µM | 25 µM | – | – | –
10 | CSc1ccc(Oc2ccc(S(N)(=O)=O)cc2CN2CC[C@@H](N(C)C)C2)cc1C [Compound 100, (R)-3-((3-(dimethylamino)pyrrolidin-1-yl)methyl)-4-(3-methyl-4-(methylthio)phenoxy)benzenesulfonamide] | 35.6 µM | 10.6 µM | 5.03 µM | – | – | –
11 | CSc1ccc(Oc2ccc(S(N)(=O)=O)cc2CN2CCCC2)cc1C [Compound 101, 4-(3-methyl-4-(methylthio)phenoxy)-3-(pyrrolidin-1-ylmethyl)benzenesulfonamide] | 40.6 µM | 4.74 µM | 1.74 µM | – | – | –
12 | CSc1ccc(Oc2ccc(S(N)(=O)=O)cc2CN2CCC[C@@H]2CO)cc1C [Compound 102, (R)-3-((2-(hydroxymethyl)pyrrolidin-1-yl)methyl)-4-(3-methyl-4-(methylthio)phenoxy)benzenesulfonamide] | > 50 µM | 17.6 µM | 6.76 µM | – | – | –
13 | CSc1ccc(Oc2ccc(S(N)(=O)=O)cc2CN2CCC[C@H]2CO)cc1C [Compound 103, (S)-3-((2-(hydroxymethyl)pyrrolidin-1-yl)methyl)-4-(3-methyl-4-(methylthio)phenoxy)benzenesulfonamide] | > 50 µM | 17.6 µM | 6.88 µM | – | – | –
14 | COC[C@@H]1CCCN1Cc1cc(S(N)(=O)=O)ccc1Oc1ccc(SC)c(C)c1 [Compound 104, (S)-3-((2-(methoxymethyl)pyrrolidin-1-yl)methyl)-4-(3-methyl-4-(methylthio)phenoxy)benzenesulfonamide] | > 50 µM | – | 27.8 µM | – | – | –
15 | CSc1ccc(Oc2ccc(S(N)(=O)=O)cc2CN2CCC[C@H]2CN2CCCC2)cc1C [Compound 105, (S)-4-(3-methyl-4-(methylthio)phenoxy)-3-(((2-pyrrolidin-1-ylmethyl)pyrrolidin-1-yl)methyl)benzensulfonamide] | 22.2 µM | 6.86 µM | 6.38 µM | – | – | –
16 | CSc1ccc(Oc2ccc(S(N)(=O)=O)cc2CN2CCN(C(C)C)CC2)cc1C [Compound 106, 3-((4-isopropylpiperazin-1-yl)methyl)-4-(3-methyl-4-(methylthio)phenoxy)benzenesulfonamide] | 24.3 µM | 8.21 µM | 3.57 µM | – | – | –

Row | Compound | CC50 (in vitro; CC50 (uM) [SG]) | IC90 ([1]; Huh-7) | IC50 [1, 2] | Emax [1] | CC50 (in vitro; CC50 (uM)) | IC50 ([1]; Huh-7)
17 | CSc1ccc(N2CN(C)Cc3cc(S(N)(=O)=O)ccc32)cc1C [Compound 107, 3-methyl-1-(3-methyl-4-(methylthio)phenyl)-1,2,3,4-tetrahydroquinazoline-6-sulfonamide] | > 50 µM | 12.8 µM | 4.84 µM | – | – | –
18 | CSc1ccc(Nc2ccc(S(N)(=O)=O)cc2CN(C)C)cc1C [Compound 108, 3-((dimethylamino)methyl)-4-(3-methyl-4-(methylthio)phenylamino)benzensulfonamide] | 44.9 µM | 17 µM | 2.64 µM | – | – | –
19 | CSc1ccc(Oc2ccc(S(N)(=O)=O)cc2CN2C[C@@H](O)C[C@@H]2CO)cc1C [Compound 110, 3-(((2S,4R)-4-hydroxy-2-(hydroxymethyl)pyrrolidin-1-yl)methyl)-4-((3-methyl-4-methylthio)phenoxy)benzenesulfonamide] | > 50 µM | – | 13.1 µM | – | – | –
20 | CSc1ccc(Oc2ccc(S(N)(=O)=O)cc2CN2CCNCC2)cc1C [Compound 111, 4-(3-methyl-4-(methylthio)phenoxy)-3-(piperazin-1-ylmethyl)benzenesulfonamide] | 46.3 µM | 22.6 µM | 7.12 µM | – | – | –
21 | CC(C)C1CC[C@@H](c2ccc(Cl)c(Cl)c2)c2ccc(C(N)=O)cc21 (stereo partly drawn) [Isopropyl Sertraline A-Ring Carboxamide, (S)-5-(3,4-dichlorophenyl)-8-isopropyl-5,6,7,8-tetrahydronaphthalene-2-carboxamide] | > 50 µM | – | 38.9 µM | – | – | –
22 | CC(C)C1CCC(c2ccc(Cl)c(Cl)c2)c2ccccc21 (stereo not shown) [Isopropyl Sertraline, 1-(3,4-dichlorophenyl)-4-isopropyl-1,2,3,4-tetrahydronaphthalene] | > 50 µM | 32.1 µM | 9.25 ± 0.95 µM | 97.96 ± 0.06% | – | –
23 | CC(=O)Nc1ccc2c(c1)C(C(C)C)CCC2c1ccc(Cl)c(Cl)c1 (stereo not shown) [N-(5-(3,4-dichlorophenyl)-8-isopropyl-5,6,7,8-tetrahydronaphthalen-2-yl)acetamide] | > 50 µM | 37.7 µM | 15.8 µM | – | – | –
24 | CC(=O)Nc1ccc2c(c1)[C@@H](N(C)CCO)CC[C@H]2c1ccc(Cl)c(Cl)c1 [N-((5S,8S)-5-(3,4-dichlorophenyl)-8-((2-hydroxyethyl)(methyl)amino)-5,6,7,8-tetrahydronaphthalen-2-yl)acetamide] | 44.9 µM | – | 13.2 µM | – | – | –
25 | CN(C)[C@H]1CC[C@@H](c2ccc(Cl)c(Cl)c2)c2ccc(NC(=O)c3ccccc3)cc21 [N-((5S,8S)-5-(3,4-dichlorophenyl)-8-(dimethylamino)-5,6,7,8-tetrahydronaphthalen-2-yl)benzamide] | 12.5 µM | – | 9.41 µM | – | – | –
26 | CN[C@H]1CC[C@@H](c2ccc(Cl)c(Cl)c2)c2ccc(NS(=O)(=O)c3cn(C)cn3)cc21 [N-((5S,8S)-5-(3,4-dichlorophenyl)-8-(methylamino)-5,6,7,8-tetrahydronaphthalen-2-yl)-1-methyl-1H-imidazole-4-sulfonamide] | 13.6 µM | – | 7.76 µM | 20.2% | – | –
27 | CN[C@H]1CC[C@@H](c2ccc(Cl)c(Cl)c2)c2ccc(N(C)C(C)=O)cc21 [N-((5S,8S)-5-(3,4-dichlorophenyl)-8-(methylamino)-5,6,7,8-tetrahydronaphthalen-2-yl)-N-methylacetamide] | 14.6 µM | 10.7 µM | 3.79 µM | – | – | –
28 | CN[C@H]1CC[C@@H](c2ccc(Cl)c(Cl)c2)c2ccc(NS(=O)(=O)c3ccccc3)cc21 [N-((5S,8S)-5-(3,4-dichlorophenyl)-8-(methylamino)-5,6,7,8-tetrahydronaphthalen-2-yl)benzenesulfonamide] | 3.91 µM | 3.83 µM | 3.48 µM | – | 3.91 µM | 3.48 µM
29 | CCCCS(=O)(=O)Nc1ccc2c(c1)[C@@H](NC)CC[C@H]2c1ccc(Cl)c(Cl)c1 [N-((5S,8S)-5-(3,4-dichlorophenyl)-8-(methylamino)-5,6,7,8-tetrahydronaphthalen-2-yl)butane-1-sulfonamide] | 3.63 µM | – | 6.07 µM | – | – | –
30 | CN[C@H]1CC[C@@H](c2ccc(Cl)c(Cl)c2)c2ccc(NC(=O)C3CCCC3)cc21 [N-((5S,8S)-5-(3,4-dichlorophenyl)-8-(methylamino)-5,6,7,8-tetrahydronaphthalen-2-yl)cyclopentanecarboxamide] | 7 µM | 5.89 µM | 4.02 µM | 22.9% | 7 µM | 4.02 µM
31 | CC(=O)NCc1ccc2c(c1)[C@@H](N(C)C)CC[C@H]2c1ccc(Cl)c(Cl)c1 [N-(((5S,8S)-5-(3,4-dichlorophenyl)-8-(dimethylamino)-5,6,7,8-tetrahydronaphthalen-2-yl)methyl)acetamide] | 19.1 µM | 9.72 µM | 4.45 µM | 92% | – | –
